Data taken from patent EP0714404B1, “ANTI-INFLAMMATORY PEPTIDES” (CURATIVE TECHNOLOGIES, INC., priority 1993, dated 1995).
Where two headings read alike, the source gives them in different places. Residues, ends and D or L forms follow the SMILES beside them.

Experiments:
[1] = test system: neutrophils; test: neutrophil chemotaxis to f-Met-Leu-Phe (Neuroprobe chambers); format: cell-based; settings: fluorescence at 530 nm, 1 hr; FIGURE 3
Experimental: The ability of CT-112 (SEQ. ID NO: 1) to inhibit chemotaxis of neutrophils in response to a variety of agents was assessed using Neuroprobe chemotaxis chambers. For these assays, neutrophils were resuspended in Hank's balanced salt solution with Ca^2+ and Mg^2+ to give a 5 x 10^6 cells/ml suspension after the cells were labeled with 1',7'-bis(2-carboxyethyl)-5-(6)-carboxyfluorescein. The neutrophils were exposed to CT-112 (SEQ. ID NO: 1) for approximately 15 min prior to addition to the chemotaxis chambers. CT-112 (SEQ. ID NO: 1) was present in both the top and bottom of the chambers, and the chemoattractant, either f-Met-Leu-Phe, leukotriene B4 or interleukin-8, was added to the bottom of chamber. Cells which had migrated through the membrane were determined by fluorescence at 530 nm at 1 hr after initiation of the assay.

[2] = test system: prostaglandin E2 (PGE2); test: carrageenan peritonitis, PGE2 content of peritoneal lavage fluid; format: in vivo, Mice; settings: 60 mg/kg/day; 24 hr post-challenge
Experimental: (§1) Mice (C57BL/6UAF, females, 12 weeks old) were implanted with Alzet mini pumps set to deliver 60 mg CT-112/kg/day. Six days post-implantation, the mice were challenged with an intraperitoneal injection of 0.3 ml of carrageenan in PBS (10 mg/ml). The peritoneal cavity was lavaged with 15 ml of Hank's Balanced Salt Solution (Ca^2+- and Mg^2+-free) at 24, 48 and 72 hr post-challenge. The lavage fluid was centrifuged (500 g, 5 min), fixed with LeukoStat fixative and stained with LeukoStat staining solution. The slides were analyzed under a microscope for the different types of inflammatory cells, such as macrophages, lymphocytes and neutrophils. At the 48-hr time point, 5 control mice were also lavaged.
(§2) In a separate study, the peritoneal lavage fluid was analyzed for total leukotriene B4 (LTB4) and prostaglandin E2 (PGE2) content at 24 hr post-challenge (Griswold et al., 1991, Biochem. Pharmacol. 42(4):825-831).

[3] = acute toxicity in mice; format: in vivo; settings: intravenous 100, 500 or 1,000 mg/kg
Experimental: Acute toxicity of CT-112 (SEQ. ID NO: 1) in mice and rats was assessed. Mice were dosed by intravenous injection with CT-112 (SEQ. ID NO: 1) at 100, 500 or 1,000 mg/kg.

[4] = test system: Delayed Type Hypersensitivity; format: in vivo, mice
Experimental: CT-112 (SEQ. ID NO: 1) was tested for its ability to modulate the immune response in a mouse model of delayed hypersensitivity (Filipp et al., 1984, Allergy, 39: 499-507; Diezel et al., 1989 J. Invest. Dermatol. 93:322-326). The mice used in this study were 8-wk old hairless females (Jackson Laboratories). The mice were sensitized to a contact allergen (1-chloro-2,4-dinitrobenzene, DNCB) by painting the dorsothoracic region twice daily for 5 consecutive days with 50 µl of 0.5% DNCB in 75% acetone:25% vegetable oil. The animals were allowed to rest for 24 hr prior to challenge with DNCB. On the sixth day after initiation of the sensitization treatments, the animals were challenged with 50 µl of DNCB solution applied to the left ear. After 24 hrs, the ear thickness was determined and compared to the unchallenged ear.
The treatment groups were as follows: • a) PBS control; • b) Prednisone (intraperitoneal injection of 25 mg/kg, 2 hr prior to challenge); • c) 7-day pump (60 mg CT-112/kg/24 hr); • d) CT-112 (intraperitoneal injections of 60 mg/kg/injection at 3, 1, and 0.25 hr prior to challenge and 3, 6 and 21 hr post-challenge); • e) DMSO control (topical application of 50 µl at 3, 1 and 0.25 hr prior to challenge; and • f) CT-112 in DMSO (20 mg/ml, topical application of 50 µl at 3, 1, and 0.25 hr prior to challenge and 3, 6 and 21 hr post-challenge).

[5] = test system: Arachidonic Acid Induced Myeloperoxidase Activity in Mouse Ear; test: myeloperoxidase activity in AA-treated mouse ear tissue (marker for PMNs); format: in vivo, mice; settings: minipump
Experimental: Myeloperoxidase activity in ear tissue was measured as a marker for the presence or absence of polymorphonuclear leukocytes (PMNs) (Barone et al., 1991, J. Neurosci. Res. 29:336-345). After measurement of ear thickness, ears were dissected from the mice and homogenized in 50mM Tris-HCL, pH 7.4 at 4°C to give a 10% (w/v) homogenate. Aliquots of the homogenate were used to determine the amount of myeloperoxidase activity present in the tissue using o-dianisidine (Sigma Chem Co., St. Louis MO) and hydrogen peroxide as substrates and monitoring chromophore generation at 460 nm (Barone et al., 1991, J. Neurosci. Res. 29:336-345).

[6] = acute toxicity in rats; format: in vivo; settings: rats, 100, 500 or 1,000 mg/kg
Experimental: Rats were dosed with CT-112 (SEQ. ID NO: 1) at 100, 500 or 1,000 mg/kg. […] All rats returned to normal appearance the day after treatment.

[7] = test system: neutrophils; test: neutrophil viability, trypan blue exclusion; format: cell-based; settings: FIGURE 3
Description: In addition, CT-112 (SEQ. ID NO: 1) was not cytotoxic to neutrophils, as determined by viability testing using trypan blue exclusion (FIGURE 3).

[8] = test system: Salmonella; test: Salmonella reverse mutation assay; format: cell-based; settings: 100-5,000 µg/ml, with or without rat liver microsomal enzyme activation
Description: The mutagenic potential of CT-112 (SEQ. ID NO: 1) has been assessed.

[9] = test system: leukotriene B4 (LTB4); test: carrageenan peritonitis, LTB4 content of peritoneal lavage fluid; format: in vivo, Mice; settings: 60 mg/kg/day; 24 hr post-challenge
Experimental: as §1, §2

[10] = test system: Inflammatory Cell Influx; test: carrageenan-induced model of peritonitis, inflammatory cell influx; format: in vivo, Mice; settings: pump 60 mg CT-112/kg/day
Experimental: as §1

With `CC(C)[C@H](NC(=O)[C@H](CCC(N)=O)NC(=O)[C@H](CO)NC(=O)[C@@H](NC(=O)[C@@H](N)[C@@H](C)O)[C@@H](C)O)C(=O)N[C@@H](CCCNC(=N)N)C(=O)N1CCC[C@H]1C(=O)N[C@@H](CCCNC(=N)N)C(=O)O` [CT-112, Thr-Thr-Ser-Gln-Val-Arg-Pro-Arg] (H-TTSQVRPR-OH) the “chemotactic migration of neutrophils to f-Met-Leu-Phe” value [1] was “effectively inhibited”, the PGE2 [2] was 13.1 ± 6.9(5) pg in peritoneal lavage and the lesions at necropsy [3] was “No lesions were visible”. The “mean body weight or mean body weight gain” value ([3]; control vs treated) was “no statistical differences”, the clinical effects ([3]; one mouse at 500 and two at 1,000 mg/kg, day of treatment) was “Minimal transient clinical effects (hypoactivity and hypersensitivity)” and the “Thickness Difference (Left-Right)” value ([4]; 7-day pump, 60 mg CT-112/kg/24 hr) was 0.00087 ± 0.000398 in. For the same molecule, the “Thickness Difference (Left-Right)” value ([4]; ip 60 mg/kg/injection at 3, 1, 0.25 hr prior and 3, 6, 21 hr post-challenge) was 0.00169 ± 0.000643 in, the “Thickness Difference (Left-Right)” value ([4]; topical, 20 mg/ml in DMSO, 50 µl at 3, 1, 0.25 hr prior and 3, 6, 21 hr post-challenge) was 0.0035 ± 0.000408 in and the “Myeloperoxidase Activity” value ([5]; 0.05 mg/animal/day) was 19.6 ± 15.6 µmole of chromophore formed/min. For the same molecule, the “Myeloperoxidase Activity” value ([5]; 0.1 mg/animal/day) was 17.0 ± 9.6 µmole of chromophore formed/min, the “Myeloperoxidase Activity” value ([5]; 1.0 mg/animal/day) was 14.7 ± 13.3 µmole of chromophore formed/min and the lesions at necropsy [6] was “No lesions were visible”. For the same molecule, the “mean body weight or mean body weight gain” value ([6]; control vs treated) was “no statistical differences”, the clinical effects ([6]; several rats at 500 and 1,000 mg/kg, day of treatment) was “Transient clinical effects (hypoactivity, hypersensitiviy, staggered gait, cyanosis and absence of righting reflex)” and the “cytotoxicity to neutrophils, viability” value [7] was “not cytotoxic”. The “number of revertants (histidine independent growth)” value [8] was “did not cause an increase”, the LTB4 [9] was 16.8 ± 11.5(5) pg in peritoneal lavage and the “Absolute Cell Number Lymphocytes” value ([10]; 24 hr post carrageenan) was 16.9 ± 5.9. For the same molecule, the “Absolute Cell Number Macrophages” value ([10]; 24 hr post carrageenan) was 19.5 ± 10, the “Absolute Cell Number Neutrophils” value ([10]; 24 hr post carrageenan) was 106 ± 29 and the “Absolute Cell Number Lymphocytes” value ([10]; 48 hr post carrageenan) was 12.5 ± 7.6. The “Absolute Cell Number Macrophages” value ([10]; 48 hr post carrageenan) was 126 ± 43, the “Absolute Cell Number Neutrophils” value ([10]; 48 hr post carrageenan) was 134 ± 77 and the “Absolute Cell Number Lymphocytes” value ([10]; 72 hr post carrageenan) was 45.1 ± 42. The “Absolute Cell Number Macrophages” value ([10]; 72 hr post carrageenan) was 255 ± 125 and the “Absolute Cell Number Neutrophils” value ([10]; 72 hr post carrageenan) was 48.4 ± 28.
